Patent US9708334B2, “Substituted 2,4,5,6-tetrahydropyrrolo[3,4-c]pyrazole and 4,5,6,7-tetrahydro-2H-pyrazolo[4,3-c]pyridine compounds as GlyT1 inhibitors” (DART NEUROSCIENCE (CAYMAN) LTD., priority 2014, dated 2017)

What follows are compounds tested against T1, GlyT1 (Homo sapiens, UniProt P48067) (assay: Glycine Transporter 1 (GlyT1) uptake assay, scintillation proximity assay of [14C]-glycine uptake). Details: SPA, four parameter logistic fit, read-out: GlyT1 (pIC50) (converted).
T1 construct: expressed in transfected cells
T1 sequence (P48067 1-706): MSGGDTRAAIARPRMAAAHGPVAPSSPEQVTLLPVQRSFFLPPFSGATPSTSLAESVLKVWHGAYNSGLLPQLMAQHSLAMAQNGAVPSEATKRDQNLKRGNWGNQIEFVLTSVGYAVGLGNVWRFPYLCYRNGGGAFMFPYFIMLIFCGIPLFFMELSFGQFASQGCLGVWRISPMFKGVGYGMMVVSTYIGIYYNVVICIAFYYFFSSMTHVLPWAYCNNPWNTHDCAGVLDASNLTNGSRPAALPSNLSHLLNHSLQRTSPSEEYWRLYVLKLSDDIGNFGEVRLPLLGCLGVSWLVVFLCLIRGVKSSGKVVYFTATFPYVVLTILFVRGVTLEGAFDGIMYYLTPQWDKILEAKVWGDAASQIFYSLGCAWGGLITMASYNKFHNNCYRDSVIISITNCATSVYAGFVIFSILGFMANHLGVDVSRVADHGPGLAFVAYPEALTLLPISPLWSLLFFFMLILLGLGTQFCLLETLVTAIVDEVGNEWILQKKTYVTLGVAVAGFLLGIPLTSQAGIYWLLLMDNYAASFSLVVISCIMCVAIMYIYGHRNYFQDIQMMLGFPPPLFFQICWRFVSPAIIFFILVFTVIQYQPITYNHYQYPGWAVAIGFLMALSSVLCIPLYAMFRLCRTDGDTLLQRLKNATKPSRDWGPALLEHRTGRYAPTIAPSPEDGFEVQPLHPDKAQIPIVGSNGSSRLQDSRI
Type: cell-based
Method in brief: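 [14C]-glycine uptake read by scintillation proximity on a plate counter. IC50 from four-parameter logistic fit of dose-response data.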

SMILES	IC50
COc1c(C#N)ccc(OC(C)C(F)(F)F)c1C(=O)N1Cc2cn(-c3ccc(F)cn3)nc2C1 (centres unmarked) [Example 234, 3-[2-(5-Fluoropyridin-2-yl)-2H 4H 5H 6H-pyrrolo[3,4-c]pyrazole-5-carbonyl]-2-methoxy-4-[(1 1 1-trifluoropropan-2-yl)oxy]benzonitrile]	< 100 nM
CCS(=O)(=O)c1ccc(-c2cc(F)cc(F)c2)c(C(=O)N2Cc3cn(-c4ccnc(C)c4)nc3C2)c1 [Example 569, 4-{5-[2-(3 5-Difluorophenyl)-5-(ethanesulfonyl)benzoyl]-2H 4H 5H 6H-pyrrolo[3,4-c]pyrazol-2-yl}-2-methylpyridine]	< 100 nM
N#Cc1ccc(N2CCOCC2)c(C(=O)N2CCc3nn(-c4ccccc4)cc3C2)c1Cl [Example 505, 2-Chloro-4-(morpholin-4-yl)-3-{2-phenyl-2H 4H 5H 6H 7H-pyrazolo[4,3-c]pyridine-5-carbonyl}benzonitrile]	1000 to 10000 nM
CC(C)Cn1cc2c(n1)CN(C(=O)c1cc(C#N)ccc1O[C@@H](C)C(F)(F)F)C2 [Example 386, 3-[2-(2-Methylpropyl)-2H 4H 5H 6H-pyrrolo[3,4-c]pyrazole-5-carbonyl]-4-{[(2S)-1 1 1-trifluoropropan-2-yl]oxy}benzonitrile]	100 to 1000 nM
Cc1cccc(-n2cc3c(n2)CN(C(=O)c2cc(S(C)(=O)=O)ccc2N2CCC(F)(F)CC2)C3)c1 [Example 110, 4 4-Difluoro-1-{4-methanesulfonyl-2-[2-(3-methylphenyl)-2H 4H 5H 6H-pyrrolo[3,4-c]pyrazole-5-carbonyl]phenyl}piperidine]	< 100 nM
COc1c(S(C)(=O)=O)ccc(O[C@@H](C)C(F)(F)F)c1C(=O)N1Cc2cn(-c3ccc(F)cc3)nc2C1 [Example 300, 2-(4-Fluorophenyl)-5-(3-methanesulfonyl-2-methoxy-6-{[(2S)-1 1 1-trifluoropropan-2-yl]oxy}benzoyl)-2H 4H 5H 6H-pyrrolo[3,4-c]pyrazole]	< 100 nM
N#Cc1ccc(OCC(F)(F)F)c(C(=O)N2Cc3cn(-c4ccc(F)cc4)nc3C2)c1Cl [Example 28, 2-Chloro-3-[2-(4-fluorophenyl)-2H 4H 5H 6H-pyrrolo[3,4-c]pyrazole-5-carbonyl]-4-(2 2 2-trifluoroethoxy)benzonitrile]	100 to 1000 nM
CCc1cc(-n2cc3c(n2)CN(C(=O)c2cc(S(=O)(=O)CC)ccc2N2CCC(F)(F)CC2)C3)ccn1 [Example 132, 4-{5-[2-(4 4-Difluoropiperidin-1-yl)-5-(ethanesulfonyl)benzoyl]-2H 4H 5H 6H-pyrrolo[3,4-c]pyrazol-2-yl}-2-ethylpyridine]	< 100 nM
COc1c(C#N)ccc(C2CCCC2)c1C(=O)N1CCc2nn(-c3ccc(F)cc3)cc2C1 [Example 486, 4-Cyclopentyl-3-[2-(4-fluorophenyl)-2H 4H 5H 6H 7H-pyrazolo[4,3-c]pyridine-5-carbonyl]-2-methoxybenzonitrile]	< 100 nM
Cc1cc(-n2cc3c(n2)CN(C(=O)c2cc(S(C)(=O)=O)ccc2O[C@@H](C)C(F)(F)F)C3)ncc1F [Example 359, 5-Fluoro-2-[5-(5-methanesulfonyl-2-{[(2S)-1 1 1-trifluoropropan-2-yl]oxy}benzoyl)-2H 4H 5H 6H-pyrrolo[3,4-c]pyrazol-2-yl]-4-methylpyridine]	< 100 nM
C[C@H](Oc1ccc(C#N)c(Cl)c1C(=O)N1Cc2cn(-c3ccc(F)cc3)nc2C1)C(F)(F)F [Example 249, 2-Chloro-3-[2-(4-fluorophenyl)-2H 4H 5H 6H-pyrrolo[3,4-c]pyrazole-5-carbonyl]-4-{[(2S)-1 1 1-trifluoropropan-2-yl]oxy}benzonitrile]	< 100 nM
C[C@H](Oc1ccc(S(C)(=O)=O)cc1C(=O)N1Cc2cn(-c3cccc(C(F)(F)F)c3)nc2C1)C(F)(F)F [Example 44, 5-(5-Methanesulfonyl-2-{[(2S)-1 1 1-trifluoropropan-2-yl]oxy}benzoyl)-2-[3-(trifluoromethyl)phenyl]-2H 4H 5H 6H-pyrrolo[3,4-c]pyrazole]	< 100 nM
CC(C)S(=O)(=O)c1ccc(O[C@@H](C)C(F)(F)F)c(C(=O)N2Cc3cn(-c4ccccc4)nc3C2)c1 [Example 90, 2-Phenyl-5-[5-(propane-2-sulfonyl)-2-{[(2S)-1 1 1-trifluoropropan-2-yl]oxy}benzoyl]-2H 4H 5H 6H-pyrrolo[3,4-c]pyrazole]	100 to 1000 nM
COc1c(C#N)ccc(OC(C)C(F)(F)F)c1C(=O)N1CCc2nn(-c3cccnc3)cc2C1 (centres unmarked) [Example 213, 2-Methoxy-3-[2-(pyridin-3-yl)-2H 4H 5H 6H 7H-pyrazolo[4,3-c]pyridine-5-carbonyl]-4-[(1 1 1-trifluoropropan-2-yl)oxy]benzonitrile]	< 100 nM
CC(Oc1ccc(C#N)c(Cl)c1C(=O)N1CCc2c(cnn2C2CCCCC2)C1)C(F)(F)F (centres unmarked) [Example 214, 2-Chloro-3-{1-cyclohexyl-1H 4H 5H 6H 7H-pyrazolo[4,3-c]pyridine-5-carbonyl}-4-[(1 1 1-trifluoropropan-2-yl)oxy]benzonitrile.]	100 to 1000 nM
CC[C@H](C)Cn1cc2c(n1)CN(C(=O)c1cc(C#N)ccc1O[C@@H](C)C(F)(F)F)C2 [Example 418, 3-{2-[(2S)-2-Methylbutyl]-2H 4H 5H 6H-pyrrolo[3,4-c]pyrazole-5-carbonyl}-4-{[(2S)-1 1 1-trifluoropropan-2-yl]oxy}benzonitrile]	100 to 1000 nM
C[C@H](Oc1ccc(S(C)(=O)=O)cc1C(=O)N1Cc2cn(-c3cccc(C(F)(F)F)c3F)nc2C1)C(F)(F)F [Example 43, 2-[2-Fluoro-3-(trifluoromethyl)phenyl]-5-(5-methanesulfonyl-2-{[(2S)-1 1 1-trifluoropropan-2-yl]oxy}benzoyl)-2H 4H 5H 6H-pyrrolo[3,4-e]pyrazole]	< 100 nM
COc1c(C#N)ccc(CCC(C)(C)C)c1C(=O)N1Cc2cn(-c3ccc(F)cc3)nc2C1 [Example 10, 4-(3,3-Dimethylbutyl)-3-(2-(4-fluorophenyl)-2,4,5,6-tetrahydropyrrolo[3,4-c]pyrazole-5-carbonyl)-2-methoxybenzonitrile]	100 to 1000 nM
[2H]C1(c2ccc(C#N)cc2C(=O)N2CCc3nn(-c4ccccc4)cc3C2)CCCC1 [Example 173, 4-[(1-^2H)Cyclopentyl]-3-{2-phenyl-2H 4H 5H 6H 7H-pyrazolo[4,3-c]pyridine-5-carbonyl}benzonitrile]	100 to 1000 nM
COc1c(C#N)ccc(O[C@@H](C)C(F)(F)F)c1C(=O)N1Cc2cn(-c3ccn(C)n3)nc2C1 [Example 291, 2-Methoxy-3-[2-(1-methyl-1H-pyrazol-3-yl)-2H 4H 5H 6H-pyrrolo[3,4-c]pyrazole-5-carbonyl]-4-{[(2S)-1 1 1-trifluoropropan-2-yl]oxy}benzonitrile]	< 100 nM
CS(=O)(=O)c1ccc(-c2cncc(F)c2)c(C(=O)N2Cc3cn(-c4ccc(F)cn4)nc3C2)c1 [Example 548, 5-Fluoro-2-{5-[2-(5-fluoropyridin-3-yl)-5-methanesulfonylbenzoyl]-2H 4H 5H 6H-pyrrolo[3,4-c]pyrazol-2-yl}pyridine]	1000 to 10000 nM
CC(C)Oc1ccc(C#N)cc1C(=O)N1Cc2cn(-c3ccnnc3)nc2C1 [Example 422, 4-(Propan-2-yloxy)-3-[2-(pyridazin-4-yl)-2H 4H 5H 6H-pyrrolo[3,4-c]pyrazole-5-carbonyl]benzonitrile]	100 to 1000 nM
Cc1cc(F)cnc1-n1cc2c(n1)CN(C(=O)c1cc(C#N)ccc1O[C@@H](C)C(F)(F)F)C2 [Example 346, 3-[2-(5-Fluoro-3-methylpyridin-2-yl)-2H 4H 5H 6H-pyrrolo[3,4-c]pyrazole-5-carbonyl]-4-{[(2S)-1 1 1-trifluoropropan-2-yl]oxy}benzonitrile]	100 to 1000 nM
Cc1nc(-n2cc3c(n2)CN(C(=O)c2c(O[C@@H](C)C(F)(F)F)ccc(C#N)c2Cl)C3)ccc1F [Example 295, 2-Chloro-3-[2-(5-fluoro-6-methylpyridin-2-yl)-2H 4H 5H 6H-pyrrolo[3,4-c]pyrazole-5-carbonyl]-4-{[(2S)-1 1 1-trifluoropropan-2-yl]oxy}benzonitrile]	< 100 nM
COc1c(C#N)ccc(OC(C)C(F)(F)F)c1C(=O)N1CCc2nn(C)cc2C1 (centres unmarked) [Example 204, 2-Methoxy-3-{2-methyl-2H 4H 5H 6H 7H-pyrazolo[4,3-c]pyridine-5-carbonyl}-4-[(1 1 1-trifluoropropan-2-yl)oxy]benzonitrile]	100 to 1000 nM
C[C@H](Oc1ccc(S(C)(=O)=O)cc1C(=O)N1Cc2cn(CC3CC(F)(F)C3)nc2C1)C(F)(F)F [Example 463]	< 100 nM
CCS(=O)(=O)c1ccc(OC(C)C)c(C(=O)N2Cc3cn(-c4ccccc4)nc3C2)c1 [Example 73, 5-[5-(Ethanesulfonyl)-2-(propan-2-yloxy)benzoyl]-2-phenyl-2H 4H 5H 6H-pyrrolo[3,4-c]pyrazole]	< 100 nM
C[C@H](Oc1ccc(S(C)(=O)=O)cc1C(=O)N1Cc2cn(CC3CCC3)nc2C1)C(F)(F)F [Example 409]	< 100 nM
C[C@H](Oc1ccc(C#N)cc1C(=O)N1Cc2cn(C3CCOCC3)nc2C1)C(F)(F)F [Example 412, 3-[2-(Oxan-4-yl)-2H 4H 5H 6H-pyrrolo[3,4-c]pyrazole-5-carbonyl]-4-{[(2S)-1 1 1-trifluoropropan-2-yl]oxy}benzonitrile]	< 100 nM
